As usually defined, the IC50 is the concentration needed to halve the response being measured.

For one data set, the system named is HIV-1 (H9/IIIB strain). The experiment in a line: Multiple round HIV-1 infection assay (Viking assay) in MT4-GFP cells. Conditions: MT4-GFP cells infected with HIV-1 H9/IIIB, inhibition of reproductive ratio R0. In kind it is cell-based. As for the experimental part: Assessing Antiviral Potency in a Multiple Round HIV-1 Infection Assay (Viking Assay)
The antiviral activity of the tenofovir prodrugs of the Examples herein was assessed in an assay that measures the rate of replication of HIV in cell culture, termed the Viking assay (Viral KINetics in Green cells) and performed as follows. HIV-1 replication was monitored using MT4-gag-GFP clone D3 (hereafter designated MT4-GFP), which are MT-4 cells modified to harbor a GFP reporter gene, the expression of which is dependent on the HIV-1 expressed proteins tat and rev. Productive infection of an MT4-GFP cell with HIV-1 results in GFP expression approximately 24 h post-infection. MT4-GFP cells were maintained at 37° C./5% CO2/90% relative humidity in RPMI 1640 supplemented with 10% fetal bovine serum, 100 μ/ml penicillin/streptomycin, and 400 μg/ml G418 to maintain the reporter gene. For infections, MT4-GFP cells were placed in the same medium lacking G418 and infected overnight with HIV-1 (H9/IIIB strain) virus at an approximate multiplicity of infection of 0.01 in the same incubation conditions. Cells were then washed and re-suspended in either RPMI 1640 supplemented with 10% or 50% normal human serum (NFIS) at 1.6×10^5 cells/mL (10% NHS or 50% NHS, respectively). Compound plates were prepared by dispensing compounds dissolved in DMSO into wells of 384 well poly-D -lysine-coated plates (0.2 μl/well) using an ECHO acoustic dispenser. Each compound was tested in a 10-point serial 3-fold dilution (typical final concentrations: 8.4 μM-0.42 nM). Controls included no inhibitor (DMSO only) and a combination of three antiviral agents (efavirenz, indinavir, an in-house integrase strand transfer inhibitor at final concentrations of 4 μM each). Cells were added (50 μL/well) to compound plates and the infected cells were maintained at 37° C./5% CO2/90% relative humidity.
infected cells were quantified at two time points, ˜48 h and ˜72 h post -infection, by counting the number of green cells in each well using an Acumen eX3 scanner. The increase in the number of green cells over ˜24 h period gives the reproductive ratio, R0, which is typically 5-15 and has been shown experimentally to be in logarithmic phase (data not shown). Inhibition of R0 is calculated for each well, and IC50s determined by non-linear 4-parameter curve fitting.

Data set [1] in a line: Prodrug stability assay in bio-relevant media (FaSSIF with Pancreatin, simulated gastrointestinal tract conditions). As to conditions: % parent prodrug remaining at 5 h vs 0 h, 37° C., 0.5 mg/mL Pancreatin in FaSSIF, HPLC area ratio. In kind it is in vitro ADME. On the procedure:
Prodrug Stability Assay in Bio-Relevant Media
The following assay was employed to evaluate the stability of the prodrugs in simulated gastrointestinal tract conditions. Preparation of fasted state simulated intestinal fluid (FaSSIF) using Phares SIF Powder was carried out according to protocols from Phare Drug Delivery AG (Baselland, Switzerland). For sample preparation, 10 μL stock solutions (10 mM) of prodrug substance in DMSO was added to 990 μL of 0.5 mg/mL Pancreatin solution (Fisher CAS#8049-47-6) in FaSSIF. Two samples were prepared for each compound at initial. If the sample was clear solution at the beginning, ran one sample directly as initial by HPLC; if the sample was not clear at starting, diluted the sample by 100% ACN. Put the other sample under 37° C. and observed the sample at 5 h time-point. At 5 h time point, if the sample was clear solution then performed HPLC analysis directly; if it was not clear solution, diluted the sample by 100% ACN and assayed by HPLC. All the samples were vortexed for 3 min and observed before injection. For the diluted samples, the area will be multiplied by a factor when data analysis. The analysis was carried out with an Agilent 1100 series HPLC with autosampler. The column was usually a Poroshell 120 EC -C18, 4.6×50 mm, 2.7 μm. The flow rate was 1.8 mL/min, and the injection volume was 5 or 10 μL. UV detection was in the range 210-400 nm. The mobile phase consisted of solvent A (water plus 10 mM tetrabutylammonium bromide) and solvent B (acetonitrile) with a gradient of 90% solvent A at 0 min changing to 95% solvent B over 6 min, maintained for 1.5 min, then reverting to 90% solvent A over 1.6 min. The area of the parent in prodrug at 5h time point was divided by the area of the parent in prodrug at 0 h time point, to generate the % claimed parent ratio, which are summarized in Table 2 for GI Tract stability.

[2] abbreviates: Human immunodeficiency virus 1, IIIB, 10% normal human serum, read-out: Viking, IC50 (10% NHS).
The mark [3] stands for this setting: Human immunodeficiency virus 1, IIIB, 50% normal human serum, read-out: Viking, IC50 (50% NHS).
[4] abbreviates: 50% normal human serum, read-out: Viking, IC50 (50% NHS).
Where [5] appears, read: 10% normal human serum, read-out: Viking, IC50 (10% NHS).

Where two headings read alike, the source gives them in different places.

On to `CC(C)OC(=O)COP(=O)(CO[C@H](C)Cn1cnc2c(N)ncnc21)NC(C)(C)C(=O)OCc1ccccc1` (mixture of isomers) [Example 42, Benzyl 2-((((((R)-1-(6-amino-9H-purin-9-yl)propan-2-yl)oxy)methyl)(2-isopropoxy-2-oxoethoxy)phosphoryl)amino)-2-methylpropanoate], for which the figures for the IC50 in the data set with HIV-1 (H9/IIIB strain) (setting [2]) and with HIV-1 (H9/IIIB strain) (setting [3]) were 5 nM and 21.8 nM, respectively. Moreover, the “GI Tract stability” value in data set [1] was 73.54%.

On to `CC(C)OC(=O)[C@H](C)OP(=O)(CO[C@H](C)Cn1cnc2c(N)ncnc21)NC(C)(C)C(=O)OC(C)C` (single isomer, unassigned) [Example 1A], for which the figures for the IC50 with HIV-1 (H9/IIIB strain) (setting [2]) and in the data set on HIV-1 (H9/IIIB strain) (setting [4]) were 14.7 nM and 61.1 nM, respectively. For the same compound, in data set [1], the “GI Tract stability” value is 85.74%.

As for `CC(C)OC(=O)[C@H](C)OP(=O)(CO[C@H](C)Cn1cnc2c(N)ncnc21)NC(C)(C)C(=O)OC(C)C` (single isomer, unassigned) [Example 1B], the IC50 is 7.43 nM with HIV-1 (H9/IIIB strain) (setting [5]) and 12.1 nM with HIV-1 (H9/IIIB strain) (setting [4]). Besides, the “GI Tract stability” value in data set [1] is recorded as 99.82%.

Take `CCCCCOC(=O)C(C)(C)NP(=O)(CO[C@H](C)Cn1cnc2c(N)ncnc21)O[C@@H](C)C(=O)OC(C)C` (single isomer, unassigned) [Example 2A]: the IC50 with HIV-1 (H9/IIIB strain) (setting [5]) was found to be 4.05 nM; in the data set on HIV-1 (H9/IIIB strain) (setting [4]), 22.1 nM. In data set [1], the “GI Tract stability” value is on record as 61.61%.

Turning to `CCCCCOC(=O)C(C)(C)NP(=O)(CO[C@H](C)Cn1cnc2c(N)ncnc21)O[C@@H](C)C(=O)OC(C)C` (single isomer, unassigned) [Example 2B], the IC50 in the data set on HIV-1 (H9/IIIB strain) (setting [5]) turned out to be 18.2 nM; in the data set with HIV-1 (H9/IIIB strain) (setting [4]), 70.9 nM. Also, the “GI Tract stability” value in data set [1] is listed as 91.95%.

On to `CC(C)OC(=O)COP(=O)(CO[C@H](C)Cn1cnc2c(N)ncnc21)NC(C)(C)C(=O)OC(C)C` (single isomer, unassigned) [Example 3A], for which the IC50 in the data set on HIV-1 (H9/IIIB strain) (setting [2]) was determined as 36.6 nM; in the data set on HIV-1 (H9/IIIB strain) (setting [4]) it was 121 nM. Also, the “GI Tract stability” value in data set [1] was 96.63%.

For `CC(C)OC(=O)COP(=O)(CO[C@H](C)Cn1cnc2c(N)ncnc21)NC(C)(C)C(=O)OC(C)C` (single isomer, unassigned) [Example 3B], the results for the IC50 in the data set on HIV-1 (H9/IIIB strain) (setting [5]) and in the data set with HIV-1 (H9/IIIB strain) (setting [4]) were 29.1 nM and 47.9 nM, respectively. Also, in data set [1], the “GI Tract stability” value is listed as 95.71%.

For `CCCCCOC(=O)C(C)(C)NP(=O)(CO[C@H](C)Cn1cnc2c(N)ncnc21)OCC(=O)OC(C)C` (single isomer, unassigned) [Example 4A], the values for the IC50 in the data set on HIV-1 (H9/IIIB strain) (setting [2]) and in the data set with HIV-1 (H9/IIIB strain) (setting [3]) were 13.9 nM and 86.5 nM, respectively. The “GI Tract stability” value in data set [1] is 99.07%.

With `CCCCCOC(=O)C(C)(C)NP(=O)(CO[C@H](C)Cn1cnc2c(N)ncnc21)OCC(=O)OC(C)C` (single isomer, unassigned) [Example 4B], the IC50 was 19.4 nM in the data set with HIV-1 (H9/IIIB strain) (setting [5]) and 158 nM in the data set with HIV-1 (H9/IIIB strain) (setting [4]). Also, the “GI Tract stability” value in data set [1] was 98.87%.

On to `CCCCCCOC(=O)C(C)(C)NP(=O)(CO[C@H](C)Cn1cnc2c(N)ncnc21)OCC(=O)OC(C)C` (single isomer, unassigned) [Example 6A], for which the concentration for half-maximal inhibition (IC50) in the data set with HIV-1 (H9/IIIB strain) (setting [2]) was found to be 3.14 nM; with HIV-1 (H9/IIIB strain) (setting [3]), 15.2 nM. Also, the “GI Tract stability” value in data set [1] is given as 95.97%.

On to `CCCCCCOC(=O)C(C)(C)NP(=O)(CO[C@H](C)Cn1cnc2c(N)ncnc21)OCC(=O)OC(C)C` (single isomer, unassigned) [Example 6B], for which the IC50 stood at 2.14 nM in the data set on HIV-1 (H9/IIIB strain) (setting [5]) and 7.99 nM in the data set on HIV-1 (H9/IIIB strain) (setting [4]). The “GI Tract stability” value in data set [1] was 73.16%.

As to `CCCCCCOC(=O)C(C)(C)NP(=O)(CO[C@H](C)Cn1cnc2c(N)ncnc21)O[C@@H](C)C(=O)OC(C)C` (single isomer, unassigned) [Example 7A], the IC50 in the data set with HIV-1 (H9/IIIB strain) (setting [5]) was 5.03 nM; in the data set with HIV-1 (H9/IIIB strain) (setting [4]), 21 nM. In addition, the “GI Tract stability” value in data set [1] is 15.36%.

Turning to `CCCCCCOC(=O)C(C)(C)NP(=O)(CO[C@H](C)Cn1cnc2c(N)ncnc21)O[C@@H](C)C(=O)OC(C)C` (single isomer, unassigned) [Example 7B], the values for the IC50 in the data set with HIV-1 (H9/IIIB strain) (setting [5]) and in the data set with HIV-1 (H9/IIIB strain) (setting [4]) were 0.37 nM and 1.01 nM, respectively. Also, in data set [1], the “GI Tract stability” value is listed as 76.64%.

Take `CCCCCOC(=O)COP(=O)(CO[C@H](C)Cn1cnc2c(N)ncnc21)NC(C)(C)C(=O)OC(C)C` (single isomer, unassigned) [Example 8A]: the values for the half-inhibitory concentration (IC50) with HIV-1 (H9/IIIB strain) (setting [5]) and in the data set with HIV-1 (H9/IIIB strain) (setting [4]) were 6.76 nM and 27 nM, respectively. The “GI Tract stability” value in data set [1] is reported as 94.11%.

Regarding `CCCCCOC(=O)COP(=O)(CO[C@H](C)Cn1cnc2c(N)ncnc21)NC(C)(C)C(=O)OC(C)C` (single isomer, unassigned) [Example 8B], the figures for the IC50 in the data set on HIV-1 (H9/IIIB strain) (setting [5]) and with HIV-1 (H9/IIIB strain) (setting [4]) were 22.7 nM and 161 nM, respectively. Also, the “GI Tract stability” value in data set [1] is 71.6%.

As for `CCCCCCOC(=O)C(C)(C)NP(=O)(CO[C@H](C)Cn1cnc2c(N)ncnc21)O[C@@H](C)C(=O)OCC` (stereo partly drawn) [Example 43, Hexyl 2-((((((R)-1-(6-amino-9H-purin-9-yl)propan-2-yl)oxy)methyl)(((S)-1-ethoxy-1-oxopropan-2-yl)oxy)phosphoryl)amino)-2-methylpropanoate], the half-maximal inhibitory concentration (IC50) in the data set on HIV-1 (H9/IIIB strain) (setting [2]) turned out to be 6.15 nM; in the data set with HIV-1 (H9/IIIB strain) (setting [3]), 20.4 nM.

As for `CCCCCCOC(=O)C(C)(C)NP(=O)(CO[C@H](C)Cn1cnc2c(N)ncnc21)OC(C)(C)C(=O)OC(C)C` (stereo partly drawn) [Example 44, Hexyl 2-((((((R)-1-(6-amino-9H-purin-9-yl)propan-2-yl)oxy)methyl)((1-isopropoxy-2-methyl-1-oxopropan-2-yl)oxy)phosphoryl)amino)-2-methylpropanoate], the IC50 in the data set on HIV-1 (H9/IIIB strain) (setting [2]) turned out to be 1.42 nM; in the data set on HIV-1 (H9/IIIB strain) (setting [3]), 1.81 nM.

On to `CC(C)OC(=O)[C@H](C)OP(=O)(CO[C@H](C)Cn1cnc2c(N)ncnc21)NC1(C(=O)OC(C)C)CCCC1` (stereo partly drawn) [Example 48, Isopropyl 1-((((((R)-1-(6-amino-9H-purin-9-yl)propan-2-yl)oxy)methyl)(((S)-1-isopropoxy-1-oxopropan-2-yl)oxy)phosphoryl)amino)cyclo-pentane-1-carboxylate], for which the IC50 worked out at 13.3 nM in the data set with HIV-1 (H9/IIIB strain) (setting [2]) and 37.3 nM in the data set on HIV-1 (H9/IIIB strain) (setting [3]).

Take `CC(C)OC(=O)[C@H](C)OP(=O)(CO[C@H](C)Cn1cnc2c(N)ncnc21)NC1(C(=O)OC(C)C)CCC1` (stereo partly drawn) [Example 50, Isopropyl 1-((((((R)-1-(6-amino-9H-purin-9-yl)propan-2-yl)oxy)methyl)(((S)-1-isopropoxy-1-oxopropan-2-yl)oxy)phosphoryl)amino)cyclo-butane-1-carboxylate]: the IC50 with HIV-1 (H9/IIIB strain) (setting [2]) was determined as 8.66 nM; in the data set on HIV-1 (H9/IIIB strain) (setting [3]), 34.3 nM.

As to `CC(C)OC(=O)[C@H](C)OP(=O)(CO[C@H](C)Cn1cnc2c(N)ncnc21)NC1(C(=O)OC(C)C)CCCCC1` (stereo partly drawn) [Example 52, Isopropyl 1-((((((R)-1-(6-amino-9H-purin-9-yl)propan-2-yl)oxy)methyl)(((S)-1-isopropoxy-1-oxopropan-2-yl)oxy)phosphoryl)amino)cyclo-hexane-1-carboxylate], the values for the IC50 with HIV-1 (H9/IIIB strain) (setting [2]) and in the data set with HIV-1 (H9/IIIB strain) (setting [3]) were 10.8 nM and 45.6 nM, respectively.

The values above are taken from patent US10449208B2, “Antiviral prodrugs of tenofovir” (Merck Sharp & Dohme Corp., priority 2016, dated 2019).
